{"source": "patent US20230234897A1", "about": "“USE OF POLYAMINES, TYRAMINE AND/OR A PLANT EXTRACT CONTAINING SAME TO STABILISE MICROORGANISMS” (AGRO INNOVATION INTERNATIONAL, priority 2020, published 2023)", "tested_on": "Azotobacter chroococcum", "test": "Growth of Azotobacter chroococcum with or without osmotic stress (0.3 M NaCl), glycine betaine versus extract", "type": "cell-based", "settings": "for Bacterial concentration at 72 h / Survival rate relative to the strain under non-stressing conditions without addition of the extract / Survival rate relative to the strain under salt stress conditions, without addition of the extract: extract at 10 g of polyamines/kg of medium, glycine betaine quantity not given", "procedure": "The effect of each of the extracts prepared according to example 1a), 1b) or 1c) was studied on the growth of various bacterial strains, under conditions with or without thermal stress, osmotic stress or acid/base stress. The extracts obtained in examples 1a), 1b) or 1c) were added to a culture medium in different quantities, in order to obtain the desired quantities of polyamines and/or tyramine.\nThe study was carried out in Spizizen Minimal Medium SMM culture broth ((NH4)2SO4: 2 g/L, K2HPO4: 14 g/L, KH2PO4: 6 g/L, MgSO4: 0.2 g/L, C6H5Na3O7·2H2O: 1 g/L, D-glucose: 5 g/L).\nThe starting inoculate for each strain was calibrated by OD measurement (620 nm) in order to obtain an initial concentration of approximately 10^3-10^4 CFU/mL. The strains were incubated for 24 to 72 h. Counts were performed in TSA agar (Tryptone Soya Agar) at TO and after 24 h, 48 h or 72 h incubation at 30° C. (+/−1° C.), according to the studied strains.\nFor each of the strains, the survival rate in the presence of the extract and/or stress was calculated relative to the bacterial concentration obtained at the end of the kinetics (at T=24 h, 48 h or 72 h) in the control mode containing the strain alone, under non-stressed conditions, without adding the extract. Similarly, the survival rate in the presence or absence of the extract and/or stress was calculated relative to the bacterial concentration obtained at the end of the kinetics in the mode containing the strain alone, under stress conditions, without adding the extract.\nThe strain Azotobacter chroococcum was tested under osmotic stress conditions, in other words by adding 0.3 M NaCl to the culture medium at time T=0.\nThe glycine betaine, known as an osmoprotectant, was tested in comparison with the Ascophyllum nodosum extract prepared according to example 1a).", "key": {"[1]": {"settings": "non-stressing conditions (no NaCl), 72 h"}}}
{"smiles": "C[N+](C)(C)CC(=O)[O-]", "note": "[glycine betaine]", "values": [{"measurement": "Bacterial concentration at 72 h", "setting": "[1]", "result": "1.1 · 10^8 CFU/mL"}, {"measurement": "Survival rate relative to the strain under non-stressing conditions without addition of the extract", "setting": "[1]", "result": 0.3, "unit": "log"}, {"measurement": "Survival rate relative to the strain under salt stress conditions, without addition of the extract", "setting": "[1]", "result": 5.1, "unit": "log"}, {"measurement": "stabilisation of Azotobacter chroococcum under osmotic stress", "setting": "osmotic stress 0.3 M NaCl", "result": "no stabilisation is observed"}, {"measurement": "loss in the bacterial concentration after 72 h incubation relative to the stress conditions", "setting": "salt stress 0.3 M NaCl, 72 h", "result": 0.8, "unit": "logs"}, {"measurement": "Bacterial concentration at 72 h", "setting": "salt stress 0.3 M NaCl, 72 h", "result": "1.4 · 10^2 CFU/mL"}, {"measurement": "Survival rate relative to the strain under non-stressing conditions without addition of the extract", "setting": "salt stress 0.3 M NaCl, 72 h", "result": "−5.6", "unit": "log"}, {"measurement": "Survival rate relative to the strain under salt stress conditions, without addition of the extract", "setting": "salt stress 0.3 M NaCl, 72 h", "result": "−0.8", "unit": "log"}]}
